Columns and labels:
[1] = cited from earlier work
[2] = cited from earlier work; remark: listed apart in the source
[3] = cited from earlier work; remark: listed apart in the source
human B1R = biological target: T1, human B1R (Homo sapiens, UniProt P46663); details: human B1R-expressing CHO cells; cited from earlier work
T1 construct: host or cells: CHO cells
T1 sequence (P46663 1-353): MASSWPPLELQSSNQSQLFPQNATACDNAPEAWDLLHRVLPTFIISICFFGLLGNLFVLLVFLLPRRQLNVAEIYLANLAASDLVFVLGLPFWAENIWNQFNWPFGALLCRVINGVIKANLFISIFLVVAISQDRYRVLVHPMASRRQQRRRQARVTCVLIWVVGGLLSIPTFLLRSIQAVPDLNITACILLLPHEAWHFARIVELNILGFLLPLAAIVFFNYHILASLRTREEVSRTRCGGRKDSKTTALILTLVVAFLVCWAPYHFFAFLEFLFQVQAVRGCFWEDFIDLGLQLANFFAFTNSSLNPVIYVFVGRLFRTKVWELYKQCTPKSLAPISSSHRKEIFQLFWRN

[4] = biological target: T2, native human Bradykinin B1 receptor (Homo sapiens, UniProt P46663); assay: Calcium flux assay (FLIPR) with IMR-90 human fibroblasts expressing Bradykinin B1 receptor after IL-1beta induction (hB1 IMR-90); assay type: cell-based; details: IMR-90 human fibroblasts after IL-1beta induction, read-out: hB1 IMR90 IC50
T2 construct: which express native human Bradykinin B1 receptor after induction with human IL-1beta; Coriell Institute; host or cells: IMR-90 human foetal lung fibroblasts, induced with human IL-1beta
T2 sequence (P46663 1-353): T1 sequence (P46663 1-353)
Protocol: Calcium Flux Assay (FLIPR) with Human Fibroblasts Expressing Bradykinin B1 Receptor (hB1 IMR-90)
The Calcium flux Assay was carried out utilising IMR-90 human foetal lung fibroblasts (American Type Culture Collection, Rockville, MD; and Coriell Institute, Camden, New Jersey), which express native human Bradykinin B1 receptor after induction with human IL-1beta.
The fibroblasts were cultured in complete growth media comprised of Dulbecco's modified Eagle's medium (DMEM; Sigma) containing 10% foetal bovine serum, 4 mM L-glutamine, and 1% nonessential amino acids. The cells were maintained in a humidified atmosphere with 5% CO2 at 37° C. and were sub-cultured at a ratio of 1:3, every other day.
For the assay, IMR-90 fibroblasts were harvested using TrypLE Express (GIBCO/Invitrogen) and seeded into 384-well plates (Corning Cellbinding Surface, Cat. 3683) at a density of 15000 cells/well. The following day, cells were treated with 0.35 ng/mL human IL-1beta in 10% FBS/MEM for 3 h to up-regulate Bradykinin B1 receptor. Induced cells were loaded with fluorescent calcium indicator by incubation with 2.5 μM Fluo-4/AM (Invitrogen) at 37° C., 5% CO2 for 2 h in the presence of 2.5 mM probenecid in 1% FBS/MEM. […] Compound examples were assayed at 8 concentrations in triplicate. […] A peptide antagonist Lys-(Des-Arg-Leu)-Bradykinin (Bachem, Brackley) at 20 µM was used to determine the full inhibition as control. IC50 values were determined by the same way described for the FLI PR assay with recombinant cells.

[5] = biological target: T3, human Bradykinin B1 receptor (Homo sapiens, UniProt P46663); assay: Calcium flux assay (FLIPR), CHO-K1 cells expressing human Bradykinin B1 receptor, absence of 0.1% BSA (hB1 free IC50); assay type: cell-based; details: absence of 0.1% BSA in assay buffer
T3 construct: host or cells: CHO-K1
T3 sequence (P46663 1-353): T1 sequence (P46663 1-353)
How it was run: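 Peak FLIPR fluorescence (538 nm) after B1 agonist peptide addition gave IC50s, scaled between DMSO and full block by 20 µM Lys-(Des-Arg-Leu)-Bradykinin. Compounds were preincubated 30 min at 28° C with calcium-dye-loaded CHO-K1 cells expressing human B1, at 8 concentrations in triplicate, 1% DMSO final.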

Male Sprague Dawley rats = assay: Rat CFA in vivo model (mechanical hyperalgesia, paw withdrawal threshold); details: for Paw withdrawal threshold 2 hours post-compound: 2 hours post-compound (Table 5)
Protocol: Male Sprague Dawley rats were used. Mechanical hyperalgesia was induced by injecting 25 μL of Complete Freund's Adjuvant (CFA) into the plantar surface of one hind paw. Mechanical hyperalgesia was measured using the Pressure Application Measurement apparatus (Ugo Basile, Gemonio, Italy). Briefly, a linearly increasing pressure was applied to an area of ˜50 mm^2 of the plantar side of the hind paw until a behavioural response (paw withdrawal) was observed or until the pressure reached 1000 gf. The pressure at which the behavioural response occurred was recorded as the “Paw Withdrawal Threshold” (PWT). Both CFA-injected and contralateral PWTs were determined for each rat, in each treatment group and at each time point of the studies. The Compound Examples were administered orally in a vehicle of dimethylsulfoxide (DMSO), Polyethylenglycol (PEG) and 2-hydroxypropyl-beta-cyclodextrin (HPCD) (v/v/v=3:20:77). Rats received a first dose of […] of Compound Example per kg body weight 1 hour before CFA injection and a second dose 24 hours after the CFA injection. Mechanical hyperalgesia testing was performed approximately 2 hours before CFA injection, then 2 and 4 hours after the second dose of Compound Example (i.e. 26 and 28 hours after CFA treatment). Data were expressed as the mean±S.D. Area Under the Curve (AUC) of PWTs (defined in table 3 as “AUC of Paw withdrawal threshold (AUC 0-4 hours) post-vehicle” with respect to vehicle group or “AUC of Paw withdrawal threshold (AUC 0-4 hours) post-drug” with respect to Compound Example). Data were analysed by performing a one-way ANOVA followed by a Dunnett's post hoc test. For p values less than 0.05 the results were deemed to be statistically significant.

[6] = due to metabolic lability; cited from earlier work

Compound	IC50 [4] [µM]	IC50 [5] [µM]	other results
C[C@@H]1CC[C@H](C)N1C(=O)c1ccc([C@@H](C)NC(=O)C2(NC(=O)c3cc(F)cc(C(F)(F)F)c3)CC2)c(F)c1	–	–	pharmacokinetic profile in rat [1]: reasonable; human metabolic stability [2]: poor; aqueous solubility [3]: reasonable
COC(=O)c1c(Cl)cccc1N1CCC(CNC(=O)C2(NC(=O)C(F)(F)F)CC2)CC1	–	–	binding affinity (human B1R): highest
O=C(O)c1cc(NC(=O)C2(c3ccc(OC(F)(F)F)cc3F)CC2)cc(F)c1-c1cnn(C2CCC2)c1 [Example 43, 2-(1-Cyclobutyl-1H-pyrazol-4-yl)-3-fluoro-5-[({1-[2-fluoro-4-(trifluoromethoxy)phenyl]cyclopropyl}carbonyl)amino]benzoic acid]	0.0028	0.007	Paw withdrawal threshold 4 hours post-compound (Male Sprague Dawley rats; 0.75 mg/kg p.o.): 599 ± 28 gf (ns); Paw withdrawal threshold 4 hours post-compound (Male Sprague Dawley rats; 3 mg/kg p.o.): 610 ± 21 gf (ns); Paw withdrawal threshold 4 hours post-compound (Male Sprague Dawley rats; 15 mg/kg p.o.): 709 ± 18 gf (****)
CC(C)n1cc(-c2ccc(NC(=O)C3(c4ccc(OC(F)(F)F)cc4F)CC3)cc2C(=O)O)cn1 [Example 71, 5-[({1-[2-Fluoro-4-(trifluoromethoxy)phenyl]cyclopropyl}carbonyl)amino]-2-[1-(propan-2-yl)-1H-pyrazol-4-yl]benzoic acid]	0.028	0.047	Paw withdrawal threshold 2 hours post-compound (Male Sprague Dawley rats; 0.75 mg/kg p.o.): 591 ± 20 gf (ns); Paw withdrawal threshold 2 hours post-compound (Male Sprague Dawley rats; 3 mg/kg p.o.): 628 ± 17 gf (ns); Paw withdrawal threshold 2 hours post-compound (Male Sprague Dawley rats; 10 mg/kg p.o.): 742 ± 49 gf (****)
CC(C)n1cc(-c2c(F)cc(NC(=O)C3(c4ccc(C(F)(F)F)cc4F)CC3)cc2C(=O)O)cn1 [Example 88, 3-Fluoro-5-[({1-[2-fluoro-4-(trifluoromethyl)phenyl]cyclopropyl}carbonyl)amino]-2-[1-(propan-2-yl)-1H-pyrazol-4-yl]benzoic acid]	0.01	0.032	–
CC(C)n1cc(-c2c(F)cc(NC(=O)C3(c4ccc(OC(F)(F)F)cc4F)CC3)cc2C(=O)O)cn1 [Example 89, 3-Fluoro-5-[({1-[2-fluoro-4-(trifluoromethoxy)phenyl]cyclopropyl}carbonyl)amino]-2-[1-(propan-2-yl)-1H-pyrazol-4-yl]benzoic acid]	0.014	0.032	–
CC(C)(C)c1cn(-c2c(F)cc(NC(=O)C3(c4ccc(OC(F)(F)F)cc4F)CC3)cc2C(=O)O)cn1 [Example 91, 2-(4-tert-Butyl-1H-imidazol-1-yl)-3-fluoro-5-[({1-[2-fluoro-4-(trifluoromethoxy)phenyl]cyclopropyl}carbonyl)amino]benzoic acid]	0.0076	0.02	–
O=C(O)c1cc(NC(=O)C2(c3ccc(OC(F)(F)F)cc3F)CC2)cc(F)c1-c1ccc(C(F)F)nc1 [Example 95, 2-[6-(Difluoromethyl)pyridin-3-yl]-3-fluoro-5-[({1-[2-fluoro-4-(trifluoromethoxy)phenyl]cyclopropyl}carbonyl)amino]benzoic acid]	0.021	0.013	–
CCC(F)(F)c1ccc(-c2c(F)cc(NC(=O)C3(c4ccc(C(F)(F)F)cc4F)CC3)cc2C(=O)O)cn1 [Example 96, 2-[6-(1,1-Difluoropropyl)pyridin-3-yl]-3-fluoro-5-[({1-[2-fluoro-4-(trifluoromethyl)phenyl]cyclopropyl}carbonyl)amino]benzoic acid]	0.025	0.0081	–
CCC(F)(F)c1ccc(-c2c(F)cc(NC(=O)C3(c4ccc(OC(F)(F)F)cc4F)CC3)cc2C(=O)O)cn1 [Example 97, 2-[6-(1,1-Difluoropropyl)pyridin-3-yl]-3-fluoro-5-[({1-[2-fluoro-4-(trifluoromethoxy)phenyl]cyclopropyl}carbonyl)amino]benzoic acid]	0.025	0.01	–
O=C(O)c1cc(NC(=O)C2(c3ccc(C(F)(F)F)cc3F)CC2)cc(Cl)c1-c1cnn(C2CCC2)c1 [Example 100, 3-Chloro-2-(1-cyclobutyl-1H-pyrazol-4-yl)-5-[({1-[2-fluoro-4-(trifluoromethyl)phenyl]cyclopropyl}carbonyl)amino]benzoic acid]	0.013	0.0089	–
O=C(O)c1cc(NC(=O)C2(c3ccc(OC(F)(F)F)cc3F)CC2)cc(Cl)c1-c1cnn(C2CCC2)c1 [Example 101, 3-Chloro-2-(1-cyclobutyl-1H-pyrazol-4-yl)-5-[({1-[2-fluoro-4-(trifluoromethoxy)phenyl]cyclopropyl}carbonyl)amino]benzoic acid]	0.0055	0.0035	–
CCC(F)(F)c1ccc(-c2c(Cl)cc(NC(=O)C3(c4ccc(C(F)(F)F)cc4F)CC3)cc2C(=O)O)cn1 [Example 105, 3-Chloro-2-[6-(1,1-difluoropropyl)pyridin-3-yl]-5-[({1-[2-fluoro-4-(trifluoromethyl)phenyl]cyclopropyl}carbonyl)amino]benzoic acid]	0.074	0.017	–
CCC(F)(F)c1ccc(-c2c(Cl)cc(NC(=O)C3(c4ccc(OC(F)(F)F)cc4F)CC3)cc2C(=O)O)cn1 [Example 106, 3-Chloro-2-[6-(1,1-difluoropropyl)pyridin-3-yl]-5-[({1-[2-fluoro-4-(trifluoromethoxy)phenyl]cyclopropyl}carbonyl)amino]benzoic acid]	0.035	0.0084	–
Cc1cc(NC(=O)C2(c3ccc(C(F)(F)F)cc3F)CC2)cc(C(=O)O)c1-c1cnn(C2CCC2)c1 [Example 107, 2-(1-Cyclobutyl-1H-pyrazol-4-yl)-5-[({1-[2-fluoro-4-(trifluoromethyl)phenyl]cyclopropyl}carbonyl)amino]-3-methylbenzoic acid]	0.036	0.022	–
Cc1cc(NC(=O)C2(c3ccc(OC(F)(F)F)cc3F)CC2)cc(C(=O)O)c1-c1cnn(C2CCC2)c1 [Example 108, 2-(1-Cyclobutyl-1H-pyrazol-4-yl)-5-[({1-[2-fluoro-4-(trifluoromethoxy)phenyl]cyclopropyl}carbonyl)amino]-3-methylbenzoic acid]	0.013	0.014	–
C[C@@H](NC(=O)C1(NC(=O)C(F)(F)F)CC1)c1ccc(-c2cccc(Cl)c2C(=O)O)cc1F [MK-0686]	–	–	pharmacokinetic profile [6]: suboptimal

Source: patent US12023319B2, “Carboxylic acid aromatic amides” (priority 2016, dated 2024)
